Measured values published in PMC7307922 (Journal of Medicinal Chemistry, 2020).
≈ marks a conversion by molar mass, not a printed value. Where “and” joins values, the source holds several entries; their conditions need not be identical. Equal values may be shown once.

Legend:
hFFA3 = molecular target: T1, hFFA3 (Homo sapiens, UniProt O14843); test: cell-based; details: for Emax: HEK293, read-out: cAMP Emax; for cAMP pEC50 / EC50: hFFA3; for cAMP pEC50: compound alone, mean of ≥3 independent experiments ± standard error; for EC50: read-out: EC50 (cAMP assay)
T1 sequence (O14843 1-346): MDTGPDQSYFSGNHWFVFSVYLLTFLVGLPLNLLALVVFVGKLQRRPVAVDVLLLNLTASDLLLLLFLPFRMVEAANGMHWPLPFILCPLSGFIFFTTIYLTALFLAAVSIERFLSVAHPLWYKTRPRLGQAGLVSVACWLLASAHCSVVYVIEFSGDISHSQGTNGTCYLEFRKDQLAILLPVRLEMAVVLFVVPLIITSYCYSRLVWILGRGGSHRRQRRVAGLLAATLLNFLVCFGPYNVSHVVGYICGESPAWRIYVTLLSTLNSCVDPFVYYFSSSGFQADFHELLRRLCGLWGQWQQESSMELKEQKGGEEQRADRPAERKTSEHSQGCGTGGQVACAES
In short: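 HEK293 Flp-In T-REx cells stably carrying FFA3-eYFP, expression induced overnight with doxycycline, 3000 cells/well; compounds co-incubated 1 h to inhibit 0.3 μM forskolin-induced cAMP, read with HTRF cAMP kit.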

[1] = Kinetic aqueous solubility in PBS pH 7.4; type: physicochemical; details: for solubility: phosphate buffered saline, pH 7.4, read-out: Aq. solub.
Procedure: (§1) Solubility and log D7.4 measurements were performed in accordance to the previously published procedures.[35]

log D7.4 measurement = type: physicochemical; details: pH 7.4; read-out: logD7.4
Procedure: as §1

[2] = Stability toward mouse liver microsomes; details: remaining after 40 min incubation with MLMs
Procedure: The study was performed by Bienta (www.bienta.net). Mouse hepatic microsomes were isolated from pooled and perfused livers of male BALB/c mice (n = 50). Isolation was performed according to the standard protocol.[36]
Microsomal incubations were carried out in 96-well plates in 5 aliquots of 40 μL each (one for each time point). Liver microsomal incubation medium comprised PBS (100 mM, pH 7.4), MgCl2 (3.3 mM), NADPH (3 mM), glucose-6-phosphate (5.3 mM), and glucose-6-phosphate dehydrogenase (0.67 units/mL) with 0.42 mg of liver microsomal protein per ml. In the control reactions, the NADPH-cofactor system was substituted with PBS. […] Each reaction was performed in duplicates. Five time points over 40 min were analyzed. The reactions were stopped by adding 12 volumes of 90% acetonitrile–water to incubation aliquots, followed by protein sedimentation by centrifuging at 5500 rpm for 3 min. […]. Supernatants were analyzed using HPLC-MS/MS on an API 3000 PE instrument.

human GPR84 = human GPR84 (Homo sapiens, UniProt Q9NQS5); test: GPR84 counterscreen, cAMP assay; type: cell-based; details: 10 μM
Chain of human GPR84 (Q9NQS5 whole entry): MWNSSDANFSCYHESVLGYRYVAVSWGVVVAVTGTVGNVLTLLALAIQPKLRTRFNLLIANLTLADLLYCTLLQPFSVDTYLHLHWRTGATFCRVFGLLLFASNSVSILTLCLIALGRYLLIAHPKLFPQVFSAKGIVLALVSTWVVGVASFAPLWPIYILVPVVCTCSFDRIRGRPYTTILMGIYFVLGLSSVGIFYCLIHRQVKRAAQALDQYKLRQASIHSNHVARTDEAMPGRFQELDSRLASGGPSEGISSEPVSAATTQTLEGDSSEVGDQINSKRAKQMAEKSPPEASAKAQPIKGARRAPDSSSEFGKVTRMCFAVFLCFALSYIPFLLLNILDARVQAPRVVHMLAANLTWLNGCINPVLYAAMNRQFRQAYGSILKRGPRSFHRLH
Procedure: Counter screening against FFA1, FFA2 , FF A4 and GPR84 […]
(100 ng/mL) overnight to induce receptor expressi on. […]
Counter screening for GPR84 was carried out using a cAMP assay. Flp -In T-Re x 293 cells generated to stably express human GPR84 tagged at is C-terminal with Gia were first treated with doxycycline […]
HT R-FRET cAMP assay (CisBio) according to the manufacturer’s protocol and measured using an Envision plate reader (PerkinElmer). For these experiments, 5000 cells were used per well in a low volume 384-well plate and compounds were tested against their ability to inhibit the cAMP response to 1 µM forskolin for 45 min. TUG-1985 was used as reference agonist. […]

[3] = molecular target: T2, Cav1.2 (L-type) Human Calcium Ion Channel (Homo sapiens, UniProt Q13936); test: Cav1.2 (L-type) calcium ion channel binding assay, Panlabs; details: 10 μM
T2 construct: Panlabs
T2 sequence (Q13936 whole entry): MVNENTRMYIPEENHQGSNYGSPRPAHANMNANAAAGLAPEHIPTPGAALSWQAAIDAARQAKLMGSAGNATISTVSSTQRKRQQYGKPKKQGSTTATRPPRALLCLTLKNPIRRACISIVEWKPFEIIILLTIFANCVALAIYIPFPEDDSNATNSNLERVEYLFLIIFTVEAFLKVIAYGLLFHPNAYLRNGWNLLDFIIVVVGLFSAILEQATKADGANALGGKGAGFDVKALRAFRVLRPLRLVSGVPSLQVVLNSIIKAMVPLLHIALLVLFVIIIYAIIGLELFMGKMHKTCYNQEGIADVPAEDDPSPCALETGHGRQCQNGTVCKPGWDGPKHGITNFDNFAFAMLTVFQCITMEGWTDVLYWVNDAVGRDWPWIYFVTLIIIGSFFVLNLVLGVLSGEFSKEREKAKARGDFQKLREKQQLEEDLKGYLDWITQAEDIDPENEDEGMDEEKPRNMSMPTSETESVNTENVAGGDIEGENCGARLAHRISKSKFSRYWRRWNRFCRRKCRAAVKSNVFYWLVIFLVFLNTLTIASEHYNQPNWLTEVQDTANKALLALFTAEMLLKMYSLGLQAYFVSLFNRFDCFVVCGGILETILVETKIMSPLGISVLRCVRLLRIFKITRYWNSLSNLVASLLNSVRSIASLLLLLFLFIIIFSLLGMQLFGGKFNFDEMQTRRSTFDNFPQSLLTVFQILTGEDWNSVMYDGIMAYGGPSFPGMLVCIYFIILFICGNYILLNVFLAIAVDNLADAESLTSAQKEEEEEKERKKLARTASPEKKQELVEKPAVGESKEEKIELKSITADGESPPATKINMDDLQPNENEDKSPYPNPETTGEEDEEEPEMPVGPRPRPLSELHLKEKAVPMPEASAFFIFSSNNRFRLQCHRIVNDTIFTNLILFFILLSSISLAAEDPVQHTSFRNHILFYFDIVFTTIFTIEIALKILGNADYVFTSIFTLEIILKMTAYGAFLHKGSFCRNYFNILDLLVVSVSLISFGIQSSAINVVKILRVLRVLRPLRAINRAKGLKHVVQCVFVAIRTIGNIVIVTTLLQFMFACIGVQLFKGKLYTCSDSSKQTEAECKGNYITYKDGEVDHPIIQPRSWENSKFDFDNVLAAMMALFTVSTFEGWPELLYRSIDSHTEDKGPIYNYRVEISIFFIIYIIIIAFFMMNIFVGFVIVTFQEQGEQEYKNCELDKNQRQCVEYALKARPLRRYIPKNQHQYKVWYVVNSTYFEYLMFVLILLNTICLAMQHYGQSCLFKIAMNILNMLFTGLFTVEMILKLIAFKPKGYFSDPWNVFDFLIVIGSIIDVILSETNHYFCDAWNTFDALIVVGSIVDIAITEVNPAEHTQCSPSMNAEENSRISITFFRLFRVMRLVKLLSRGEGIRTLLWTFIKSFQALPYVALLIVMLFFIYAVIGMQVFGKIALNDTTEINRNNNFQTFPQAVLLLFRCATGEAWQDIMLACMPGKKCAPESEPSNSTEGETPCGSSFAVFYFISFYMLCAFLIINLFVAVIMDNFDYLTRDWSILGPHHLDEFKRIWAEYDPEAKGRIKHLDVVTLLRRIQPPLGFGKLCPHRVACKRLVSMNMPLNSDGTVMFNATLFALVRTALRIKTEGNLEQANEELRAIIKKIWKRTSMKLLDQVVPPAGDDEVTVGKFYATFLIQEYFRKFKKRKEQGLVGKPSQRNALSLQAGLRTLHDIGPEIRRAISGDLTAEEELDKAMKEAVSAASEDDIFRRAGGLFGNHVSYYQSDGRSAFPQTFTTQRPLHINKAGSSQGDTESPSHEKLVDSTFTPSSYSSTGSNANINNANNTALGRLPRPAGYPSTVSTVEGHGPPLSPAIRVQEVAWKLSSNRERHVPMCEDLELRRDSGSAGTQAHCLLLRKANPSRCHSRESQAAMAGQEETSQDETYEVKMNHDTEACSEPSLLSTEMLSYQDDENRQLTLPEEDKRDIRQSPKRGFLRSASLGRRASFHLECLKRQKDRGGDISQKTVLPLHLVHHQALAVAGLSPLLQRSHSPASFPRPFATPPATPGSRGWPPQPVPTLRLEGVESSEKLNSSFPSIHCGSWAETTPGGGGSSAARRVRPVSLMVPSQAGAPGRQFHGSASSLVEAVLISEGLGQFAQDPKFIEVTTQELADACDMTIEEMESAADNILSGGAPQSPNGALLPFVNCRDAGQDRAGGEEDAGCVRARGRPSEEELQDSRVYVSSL
T2 sequence (Q08289 whole entry partner): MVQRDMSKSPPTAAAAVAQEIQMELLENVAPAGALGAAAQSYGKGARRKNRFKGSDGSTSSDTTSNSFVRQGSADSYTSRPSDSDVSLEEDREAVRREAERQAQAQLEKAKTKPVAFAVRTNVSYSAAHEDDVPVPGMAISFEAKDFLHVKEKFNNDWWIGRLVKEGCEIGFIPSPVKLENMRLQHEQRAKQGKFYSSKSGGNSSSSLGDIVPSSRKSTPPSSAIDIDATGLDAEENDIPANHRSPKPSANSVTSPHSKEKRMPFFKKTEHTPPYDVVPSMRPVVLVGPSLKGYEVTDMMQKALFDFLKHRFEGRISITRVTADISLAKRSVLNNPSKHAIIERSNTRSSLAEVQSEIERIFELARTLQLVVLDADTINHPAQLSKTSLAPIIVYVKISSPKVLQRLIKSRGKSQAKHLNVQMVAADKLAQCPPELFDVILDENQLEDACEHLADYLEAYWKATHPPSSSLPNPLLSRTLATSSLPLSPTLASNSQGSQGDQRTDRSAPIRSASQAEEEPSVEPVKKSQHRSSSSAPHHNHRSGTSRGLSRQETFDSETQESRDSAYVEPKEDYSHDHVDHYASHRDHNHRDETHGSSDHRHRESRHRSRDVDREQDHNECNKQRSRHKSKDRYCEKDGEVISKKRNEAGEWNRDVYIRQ
T2 sequence (P54289 25-946 partner limits assumed): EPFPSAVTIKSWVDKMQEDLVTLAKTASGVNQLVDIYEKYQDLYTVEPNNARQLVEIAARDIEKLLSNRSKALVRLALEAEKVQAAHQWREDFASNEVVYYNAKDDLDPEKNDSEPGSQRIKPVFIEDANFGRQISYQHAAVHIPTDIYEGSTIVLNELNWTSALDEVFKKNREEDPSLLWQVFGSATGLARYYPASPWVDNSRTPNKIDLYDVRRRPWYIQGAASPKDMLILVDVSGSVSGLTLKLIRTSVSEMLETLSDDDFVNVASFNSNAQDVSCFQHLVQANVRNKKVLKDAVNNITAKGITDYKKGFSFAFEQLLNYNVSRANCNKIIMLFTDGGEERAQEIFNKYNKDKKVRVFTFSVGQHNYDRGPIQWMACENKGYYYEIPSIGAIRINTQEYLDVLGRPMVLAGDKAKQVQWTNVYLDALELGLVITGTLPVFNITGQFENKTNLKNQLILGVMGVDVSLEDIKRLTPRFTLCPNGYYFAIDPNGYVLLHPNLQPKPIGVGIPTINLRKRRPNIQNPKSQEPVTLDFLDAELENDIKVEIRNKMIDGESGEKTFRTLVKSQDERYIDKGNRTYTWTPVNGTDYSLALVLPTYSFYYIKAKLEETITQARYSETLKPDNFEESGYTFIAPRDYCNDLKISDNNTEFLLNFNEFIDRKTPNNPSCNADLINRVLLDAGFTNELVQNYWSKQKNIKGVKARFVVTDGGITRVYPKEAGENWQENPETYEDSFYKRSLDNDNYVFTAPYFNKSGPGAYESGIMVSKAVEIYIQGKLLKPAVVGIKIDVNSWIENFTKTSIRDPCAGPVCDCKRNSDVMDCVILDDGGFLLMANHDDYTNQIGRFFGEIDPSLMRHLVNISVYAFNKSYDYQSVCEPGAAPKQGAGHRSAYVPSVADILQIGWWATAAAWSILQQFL
T2 sequence (P54289 947-1103 partner limits assumed): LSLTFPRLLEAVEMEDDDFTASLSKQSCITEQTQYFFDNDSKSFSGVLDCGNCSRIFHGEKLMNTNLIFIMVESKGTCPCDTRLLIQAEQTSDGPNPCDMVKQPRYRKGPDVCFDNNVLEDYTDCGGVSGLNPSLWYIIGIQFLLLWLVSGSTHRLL
Procedure: Counterscreen data on 1, 16, 57 and 63
Cav1.2 (L-type) Human Calcium Ion Channel Binding -20% 13% 12% 1%
(Antagonist Radioligand) Assay, Panlabs, 10 µM

human FFA1 = molecular target: T3, human FFA1 (Homo sapiens, UniProt O14842); test: FFA1 counterscreen, arrestin BRET assay; type: cell-based; details: 10 μM
T3 construct: expressed in transfected cells; host or cells: HEK293T, transient co-transfection
T3 sequence (O14842 whole entry): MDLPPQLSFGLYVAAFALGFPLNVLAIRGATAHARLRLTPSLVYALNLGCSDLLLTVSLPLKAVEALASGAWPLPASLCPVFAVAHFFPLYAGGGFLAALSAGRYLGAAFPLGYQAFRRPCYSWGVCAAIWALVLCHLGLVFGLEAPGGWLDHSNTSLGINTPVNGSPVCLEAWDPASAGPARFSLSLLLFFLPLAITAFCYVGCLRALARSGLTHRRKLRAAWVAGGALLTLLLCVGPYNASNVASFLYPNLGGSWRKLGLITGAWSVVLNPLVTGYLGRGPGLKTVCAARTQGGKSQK
Procedure: Counter screening against FFA1, FFA2 , FF A4 and GPR84
Counter screening against FFA1 and FFA4 was carried out using a modified version of a previously described bioluminescence resonance energy transfer (BRET) designed to assess recruitment of b-ar r estin-2 to each receptor.2 Briefly, HEK293T cells were co-transfected with plasmids en coding either human FFA1 or human FFA4 tagged at their C -termini with eYFP and with a plasmid encoding b-ar r estin-2 tagged at its N-terminal with Nanoluciferase. 24 h post transfection cells were seeded into black with clear bottom 96-well plates that had been coated with poly-D-lysine. Cells were then cultured a further 24 h prior to experiments. Cells were then washed twice with Hank’s Balanced salt solution supplemented with 10 mM HEPES (HBSSH) then incubated at 37 °C in HBSSH for 30 min prior to running the assay. The Nluc substrate, coelenterazine h was then added to a f inal concentration of 5 µM and cells were incubated at 37 °C for 10 min prior to adding test agonists. Following a further 5 min incubation, luminescent emission at 475 nm and 535 nm was measured using a Pherastar FS reader (BMG Labtech, Aylesbury, UK) pla te reader set for bottom plate optics. The BRET ratio was then calculated as 535/475 emissions and all BRET ratio values were normalized against the maxima l BRET ratio obtained using reference agonists for the respective receptors (TUG -891 for FFA4, TUG-770 for FFA1). For antagonism studies, the same protocol was used, however the antagonist was added 15 min prior to the addition of an EC 80 concentration of the reference agonist for each receptor. […]

SMILES	Emax (hFFA3) [%]	PAM pEC50 (hFFA3; cAMP assay in the presence of 1 μM propionate)	cAMP pEC50 (hFFA3)	solubility [1] [µM]	logD (log D7.4 measurement)	MLM (%) remaining [2]	GPR84, agonist, cAMP assay (human GPR84) [%]	activity at GPR84 (human GPR84)	Cav1.2 (L-type) binding (antagonist radioligand) [3] [%]	activity at L-type calcium ion channels [3]	activity at FFA1 (human FFA1)	EC50 (hFFA3) [nM]	increase of solubility relative to 16 ([1]; kinetic solubility) [fold]	logD at 24 h (log D7.4 measurement)	allosteric effect on propionate response (hFFA3; cAMP assay together with propionate (56: 30 μM compound; 62, 63: 1 μM propionate))
CC1=C(C(=O)Nc2ccccc2C)C(c2ccco2)C2=C(CCCC2=O)N1 (stereo not drawn) [Compound 1, 4-(Furan-2-yl)-2-methyl-5-oxo-N-(o-tolyl)-1,4,5,6,7,8-hexahydroquinoline-3-carboxamide, reference compound]	105	6.27 ± 0.15	6.28 ± 0.06	190 (≈ 68.9 µg/mL)	2.05	52%	1±7	No significant activity	-20	No significant activity	No significant activity				
CC1=C(C(=O)Nc2cc(Cl)ccc2Cl)C(c2ccco2)C2=C(CCCC2=O)N1 (stereo not drawn) [Compound 16, reference compound]	106		6.89 ± 0.02	5 (≈ 2.09 µg/mL)	3.19	1−2% and 1%	2±4	No significant activity	13	No significant activity	No significant activity				
CCCC1C(C(=O)Nc2cc(Cl)ccc2Cl)=C(C)NC2=C1C(=O)CCC2 (stereo not drawn) [Compound 57, N-(2,5-Dichlorophenyl)-2-methyl-5-oxo-4-propyl-1,4,5,6,7,8-hexahydroquinoline-3-carboxamide]	113		6.84 ± 0.02	33 (≈ 13 µg/mL)		1−2% and 1%	1±4	No significant activity	12	No significant activity	No significant activity	145	6	4.25	
CC1=C(C(=O)Nc2cc(Cl)ccc2Cl)C(C2CCCC2)C2=C(CCCC2=O)N1 (stereo not drawn) [Compound 63, 4-Cyclopentyl-N-(2,5-dichlorophenyl)-2-methyl-5-oxo-1,4,5,6,7,8-hexahydroquinoline-3-carboxamide]	99		6.79 ± 0.05	9 (≈ 3.77 µg/mL)	> 4.3	41%	0±1	No significant activity	1	No significant activity	No significant activity	162			did not reveal significant PAM effects
